The text below walks through data of patent US8623879B2, “1-heterocyclyl-1,5-dihydro-pyrazolo[3,4-D] pyrimidin-4-one derivates and their use as PDE9A modulators” (Boehringer Ingelheim International GmbH, priority 2008, dated 2014).

The target of test [1] is T1, human PDE9A2 (Homo sapiens, UniProt O76083).
T1 construct: made in house; host or cells: Sf9 insect cells (infected); crude lysate used as enzyme source
Put plainly: PDE9A2 enzymatic activity assay (scintillation proximity assay, SPA). As to conditions: for inhibition at 10 µM: read-out: % inhibition of PDE9A2 (at 10 micromolar concentration), 10 micromolar concentration, values above 100% adjusted to 100%; for IC50: reported only as range 1-100 or 101-1200 nanomolar, specific value lies within range, read-out: IC50 within range [nanomolar (nM)]. It counts as biochemical.

Test [2] addresses T2, Murine PDE9A (Mus musculus, UniProt O70628).
T2 sequence (O70628 1-534): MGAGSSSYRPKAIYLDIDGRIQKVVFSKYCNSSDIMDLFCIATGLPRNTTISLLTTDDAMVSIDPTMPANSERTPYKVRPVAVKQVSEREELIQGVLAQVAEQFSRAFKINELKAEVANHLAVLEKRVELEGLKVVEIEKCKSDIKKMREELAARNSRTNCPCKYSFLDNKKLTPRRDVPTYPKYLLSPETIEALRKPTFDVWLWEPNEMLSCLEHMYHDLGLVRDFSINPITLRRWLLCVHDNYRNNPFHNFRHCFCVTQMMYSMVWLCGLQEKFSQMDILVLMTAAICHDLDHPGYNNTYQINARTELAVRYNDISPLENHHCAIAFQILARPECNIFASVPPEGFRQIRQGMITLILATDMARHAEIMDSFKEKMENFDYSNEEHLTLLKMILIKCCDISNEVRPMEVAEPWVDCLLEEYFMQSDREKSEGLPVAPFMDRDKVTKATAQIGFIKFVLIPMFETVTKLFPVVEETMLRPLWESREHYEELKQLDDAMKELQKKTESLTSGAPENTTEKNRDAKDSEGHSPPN
The conditions noted are these: concentrations below 200 micromolar; cited from earlier work.

Test [3] deals with human PDE9A (Homo sapiens, UniProt O76083). As to conditions: concentrations of up to 100 micromolar; cited from earlier work.

Molecules are shown by their SMILES.

T1 sequence (O76083 1-533 isoform O76083-2): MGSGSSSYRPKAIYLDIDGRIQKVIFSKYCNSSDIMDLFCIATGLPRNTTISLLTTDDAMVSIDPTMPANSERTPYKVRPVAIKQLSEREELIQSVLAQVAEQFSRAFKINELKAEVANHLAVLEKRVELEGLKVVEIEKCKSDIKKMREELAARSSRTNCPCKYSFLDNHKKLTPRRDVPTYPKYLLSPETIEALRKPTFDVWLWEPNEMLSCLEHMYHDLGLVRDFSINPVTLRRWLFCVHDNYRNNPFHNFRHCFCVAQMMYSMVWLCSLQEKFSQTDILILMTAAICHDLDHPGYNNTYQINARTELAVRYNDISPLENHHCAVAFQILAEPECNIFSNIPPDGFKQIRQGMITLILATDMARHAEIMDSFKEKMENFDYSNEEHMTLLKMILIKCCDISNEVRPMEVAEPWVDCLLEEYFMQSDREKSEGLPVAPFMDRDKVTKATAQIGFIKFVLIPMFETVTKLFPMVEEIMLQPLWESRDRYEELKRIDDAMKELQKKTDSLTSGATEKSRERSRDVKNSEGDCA
Sequence of human PDE9A (O76083 whole entry): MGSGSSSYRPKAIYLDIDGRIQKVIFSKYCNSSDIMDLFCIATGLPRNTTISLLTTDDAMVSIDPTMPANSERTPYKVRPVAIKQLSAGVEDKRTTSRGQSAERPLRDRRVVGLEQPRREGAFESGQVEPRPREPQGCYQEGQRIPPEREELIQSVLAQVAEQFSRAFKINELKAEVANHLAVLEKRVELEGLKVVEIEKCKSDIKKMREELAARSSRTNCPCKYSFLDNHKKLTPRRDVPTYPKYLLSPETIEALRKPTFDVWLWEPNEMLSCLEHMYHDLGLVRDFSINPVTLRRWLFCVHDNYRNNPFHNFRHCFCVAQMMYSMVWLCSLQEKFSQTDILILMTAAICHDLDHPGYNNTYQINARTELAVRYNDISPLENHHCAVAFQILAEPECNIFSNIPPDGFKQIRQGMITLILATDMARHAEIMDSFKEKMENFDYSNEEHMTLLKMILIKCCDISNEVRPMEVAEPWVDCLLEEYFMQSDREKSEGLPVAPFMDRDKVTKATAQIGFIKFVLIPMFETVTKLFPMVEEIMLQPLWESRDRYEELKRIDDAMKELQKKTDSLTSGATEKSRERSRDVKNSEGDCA

Regarding `O=c1[nH]c(Cc2ncccc2C(F)(F)F)nc2c1cnn2C1CCOCC1` [Example 63], in test [1], the inhibition at 10 µM is 92% and the IC50 fell in the range of 101 to 1200 nM.

Regarding `O=c1[nH]c(Cc2cccc(C(F)(F)F)n2)nc2c1cnn2C1CCOCC1` [Example 64], in test [1], the inhibition at 10 µM was determined as 97% and the IC50 was 1 to 100 nM.

For the molecule `O=c1[nH]c(Cc2cc(C(F)(F)F)ccn2)nc2c1cnn2C1CCOCC1` [Example 65], in test [1], the inhibition at 10 µM was 97% and the IC50 was 1 to 100 nM.

Take `O=c1[nH]c(Cc2ncccn2)nc2c1cnn2C1CCOCC1` [Example 66]: in test [1], the inhibition at 10 µM was determined as 91% and the IC50 lay within 101 to 1200 nM.

Turning to `COc1cccnc1Cc1nc2c(cnn2C2CCOCC2)c(=O)[nH]1` [Example 67], in test [1], the inhibition at 10 µM was determined as 95% and the concentration for half-maximal inhibition (IC50) lay within 101 to 1200 nM.

As to `CC(=O)N1CCC(Oc2ccccc2Cc2nc3c(cnn3C3CCOCC3)c(=O)[nH]2)CC1` [Example 68], in test [1], the inhibition at 10 µM was 97% and the IC50 was in the range of 1 to 100 nM.

In the case of `O=c1[nH]c(Cc2cccnc2)nc2c1cnn2C1CCOCC1` [Example 123], in test [1], the inhibition at 10 µM amounted to 91% and the IC50 fell in the range of 101 to 1200 nM.

Take `O=c1[nH]c(Cc2ccccc2OC2CCCC2)nc2c1cnn2C1CCOCC1` [Example 125]: in test [1], the inhibition at 10 µM amounted to 95% and the IC50 is 1 to 100 nM.

For the molecule `CC[C@H](C)Cc1nc2c(cnn2C2CCOCC2)c(=O)[nH]1` [Example 128], in test [1], the inhibition at 10 µM was 99% and the 50% inhibitory concentration (IC50) is 1 to 100 nM.

With `CCC(CC)Cc1nc2c(cnn2C2CCOCC2)c(=O)[nH]1` [Example 133, 6-(2-Ethyl-butyl)-1-(tetrahydro-pyran-4-yl)-1,5-dihydro-pyrazolo[3,4-d]pyrimidin-4-one], in test [1], the inhibition at 10 µM stood at 98% and the half-inhibitory concentration (IC50) fell in the range of 1 to 100 nM.

On to `O=c1[nH]c(CC2CCCC2)nc2c1cnn2C1CCOCC1` [Example 134], for which, in test [1], the inhibition at 10 µM was 99% and the IC50 lay in the range of 1 to 100 nM.

For `O=c1[nH]c(Cc2ccc(F)c(Br)c2)nc2c1cnn2C1CCOCC1` [Example 136], in test [1], the inhibition at 10 µM amounted to 100% and the IC50 is 1 to 100 nM.

Consider `O=c1[nH]c(Cc2ccc(F)c(Cl)c2)nc2c1cnn2C1CCOCC1` [Example 137], for which, in test [1], the inhibition at 10 µM was determined as 99% and the IC50 lay within 1 to 100 nM.

Consider `O=c1[nH]c(Cc2ccccc2OC(F)(F)F)nc2c1cnn2C1CCOCC1` [Example 138], for which, in test [1], the inhibition at 10 µM was determined as 100% and the IC50 was 1 to 100 nM.

Take `O=c1[nH]c(Cc2cccc(F)c2)nc2c1cnn2C1CCOCC1` [Example 139]: in test [1], the inhibition at 10 µM was found to be 99% and the IC50 lay within 1 to 100 nM.

For the molecule `O=c1[nH]c(Cc2ccc(F)cc2)nc2c1cnn2C1CCOCC1` [Example 140], in test [1], the inhibition at 10 µM was 100% and the 50% inhibitory concentration (IC50) lay in the range of 1 to 100 nM.

Take `CC(C)Cc1nc2c(cnn2C2CCOCC2)c(=O)[nH]1` [Example 143]: in test [1], the inhibition at 10 µM was 100% and the 50% inhibitory concentration (IC50) was 1 to 100 nM.

In the case of `O=c1[nH]c(CC2CCCCC2)nc2c1cnn2C1CCOCC1` [Example 144], in test [1], the inhibition at 10 µM was 100% and the concentration for half-maximal inhibition (IC50) lay within 1 to 100 nM.

For the molecule `CN1CCC(n2ncc3c(=O)[nH]c(Cc4ccccc4)nc32)CC1` [Example 148], in test [1], the inhibition at 10 µM was 86% and the IC50 fell in the range of 101 to 1200 nM.

With `CN1CCC(n2ncc3c(=O)[nH]c(CC4CCCC4)nc32)CC1` [Example 149], in test [1], the inhibition at 10 µM was determined as 95% and the IC50 was 101 to 1200 nM.

For the molecule `CN1CCC(n2ncc3c(=O)[nH]c(Cc4ccccc4OC(F)(F)F)nc32)CC1` [Example 150], in test [1], the inhibition at 10 µM was 90% and the IC50 fell in the range of 101 to 1200 nM.

In the case of `CC(=O)N1CCC(n2ncc3c(=O)[nH]c(CC4CCCC4)nc32)CC1` [Example 151], in test [1], the inhibition at 10 µM is 92% and the IC50 was in the range of 101 to 1200 nM.

Turning to `CC(=O)N1CCC(n2ncc3c(=O)[nH]c(Cc4ccccc4)nc32)CC1` [Example 152], in test [1], the inhibition at 10 µM stood at 93% and the 50% inhibitory concentration (IC50) lay in the range of 101 to 1200 nM.

As to `CC(=O)N1CCC(n2ncc3c(=O)[nH]c(Cc4ccccc4OC(F)(F)F)nc32)CC1` [Example 153], in test [1], the inhibition at 10 µM was determined as 90% and the half-inhibitory concentration (IC50) was 101 to 1200 nM.

As for `O=c1[nH]c(CC2CCCC2)nc2c1cnn2C1CCNCC1` [Example 195], in test [1], the inhibition at 10 µM amounted to 88% and the IC50 lay in the range of 101 to 1200 nM.

Consider `O=c1[nH]c(Cc2ccccc2)nc2c1cnn2C1CCNCC1` [Example 202], for which, in test [1], the inhibition at 10 µM was 83% and the IC50 is 101 to 1200 nM.

As for `O=c1[nH]c(Cc2ccccc2OC(F)(F)F)nc2c1cnn2C1CCNCC1` [Example 203], in test [1], the inhibition at 10 µM was 84% and the half-inhibitory concentration (IC50) lay in the range of 101 to 1200 nM.

On to `C=Cc1cc(OC)ccc1Cc1nc2c(cnn2C2CCOCC2)c(=O)[nH]1` [Example 230-4], for which, in test [1], the inhibition at 10 µM was 98% and the IC50 lay in the range of 101 to 1200 nM.

Regarding `O=C1CC(n2ncc3c(=O)[nH]c(CC4CCCC4)nc32)CCO1` (stereo not shown) [Example 233], in test [1], the inhibition at 10 µM was determined as 100% and the IC50 was 1 to 100 nM.

For the molecule `CCc1cc(OC)ccc1Cc1nc2c(cnn2C2CCOCC2)c(=O)[nH]1` [Example 235], in test [1], the inhibition at 10 µM was 98% and the IC50 is 101 to 1200 nM.

For the molecule `O=c1[nH]c(CC2CC2)nc2c1cnn2C1CC[S+]([O-])CC1` (stereo not shown) [Example 236], in test [1], the inhibition at 10 µM was found to be 93% and the IC50 lay within 101 to 1200 nM.

On to `O=c1[nH]c(CC2CC2)nc2c1cnn2C1CCS(=O)(=O)CC1` [Example 237], for which, in test [1], the inhibition at 10 µM came out at 89% and the concentration for half-maximal inhibition (IC50) was 101 to 1200 nM.

Turning to `CC(C)Cn1c(=O)n(C)c(=O)c2[nH]cnc21` [IBMX], the “inhibition of murine PDE9A” value in test [2] is “not inhibited”. For the same molecule, the “inhibition on the isolated enzyme” value in test [3] is on record as “no inhibition”.

Consider `CC(=O)Nc1ccc(-c2c[nH]c(=O)cn2)cc1` [SKF94120], for which, in test [3], the “inhibition on the isolated enzyme” value is given as “no inhibition”.

For the molecule `OCCN(CCO)c1nc(N2CCCCC2)c2nc(N(CCO)CCO)nc(N3CCCCC3)c2n1` [dipyridamole], the “inhibition on the isolated enzyme” value in test [3] is listed as “no inhibition”.

In the case of `COc1ccc(C2CNC(=O)C2)cc1OC1CCCC1` (stereo not shown) [rolipram], in test [3], the “inhibition on the isolated enzyme” value is reported as “no inhibition”.

With `CCOC(=O)C1=C[C@]2(CC)CCCN3CCc4c(n1c1ccccc41)[C@@H]32` [vinpocetine], the “inhibition on the isolated enzyme” value in test [3] is listed as “no inhibition”.
